Data as given in patent US6555558B2, “Oral dosage self-emulsifying formulations of pyranone protease inhibitors” (priority 2000, dated 2003).

Key:
[1] = solubility in polyethylene glycols; format: physicochemical; conditions: polyethylene glycols within a defined average molecular weight range
Protocol: Microemulsion phase diagrams were constructed for systems containing various lipophilic phases, hydrophilic phases, and surfactants. After numerous studies it was determined that a number of pyranone protease inhibitors, including tipranavir, were soluble in polyethylene glycols within a defined average molecular weight range, and could be used to replace propylene glycol and ethanol found in conventional microemulsion formulations of such drugs.

[2] = free acid form; pH of from about 6 to about 7; cited from earlier work
[3] = target: T1, HIV protease (Human immunodeficiency virus type 1 group M subtype B, UniProt P04585); conditions: in vitro enzymatic inhibition; cited from earlier work
T1 construct: one of the smallest enzymes yet characterized (consisting of only 99 amino acids)

[4] = tested on: HIV; conditions: antiviral cell culture; cited from earlier work
[5] = cited from earlier work
[6] = tested on: viral aspartate proteases of a variety of HIV type 1 laboratory strains and clinical isolates; conditions: including those resistant to zidovudine and delavirdine; cited from earlier work
[7] = tested on: clinical isolates with a wide range of resistance to currently available peptidomimetic protease inhibitors; conditions: 105 viruses with more than tenfold resistance to three or four proteinase inhibitors, average 6.1 protease mutations; cited from earlier work
[8] = tested on: isolates resistant to indinavir, ritonavir and nelfinavir; saquinavir resistance; conditions: cited from earlier work
[9] = tested on: HIV-1 variants resistant to the peptidomimetic protease inhibitors; conditions: cited from earlier work

CCC[C@@]1(CCc2ccccc2)CC(O)=C([C@H](CC)c2cccc(NS(=O)(=O)c3ccc(C(F)(F)F)cn3)c2)C(=O)O1 [tipranavir]
solubility in polyethylene glycols [1]: soluble | aqueous solubility [2]: about 10 μg/ml | Ki [3]: ~0.008 nM | IC90 [4]: ~100 nM | Log P [5]: about 6.1 | potency against viral aspartate proteases [6]: excellent potency | share of resistant viruses susceptible [7]: ninety | antiviral activity against isolates resistant to indinavir, ritonavir and nelfinavir [8]: retain sustained antiviral activity | activity against HIV-1 variants resistant to peptidomimetic protease inhibitors [9]: highly active
